# Measurements: ChEMBL document CHEMBL3885861, “Open TG-GATES”
# Species: Rattus norvegicus
# Experiment: Open TG-GATES - Regimen: Single
# Type: toxicity, organism-based, Sprague-Dawley
# Design: regimen Single, gender Male, age 6 weeks
# Conditions: in vivo, po, 0 mg/kg, route gavage, dose level Control; for APTT / Bas / Eos / Fbg / Hb / Ht / Lym / MCH / MCHC / MCV / Mono / Neu / PT / Plat / RBC / Ret / WBC: tissue Blood; for KIDNEY_L / KIDNEY_R / KIDNEY_TOTAL: tissue Kidney; for LIVER: tissue Liver; for A/G / ALP / ALT / AST / BUN / CRE / Ca / Cl / DBIL / GLC / IP / K / LDH / Na / PL / RALB / TBIL / TC / TG / TP / gamma-GTP: tissue Plasma
smiles,measurement,setting,value
C[C@]12CCC(=O)C=C1CC[C@@H]1[C@@H]2CC[C@@]2(C)[C@H]1CC[C@]2(C)O [METHYLTESTOSTERONE],TERMINAL_BW,3 h,202.4 g
same,APTT,3 h,15.7 s
same,Bas,3 h,0%
same,Eos,3 h,1%
same,Fbg,3 h,277 mg/dL
same,Hb,3 h,13.3 g/dL
same,Ht,3 h,39%
same,Lym,3 h,74.2%
same,MCH,3 h,21.5 pg
same,MCHC,3 h,34%
same,MCV,3 h,63.3 fL
same,Mono,3 h,3.6%
same,Neu,3 h,20.6%
same,PT,3 h,13.2 s
same,Plat,3 h,111.8 x10_4/uL
same,RBC,3 h,616.6 x10_4/ul
same,Ret,3 h,8.5%
same,WBC,3 h,71.2 x10_2/uL
same,KIDNEY_L,3 h,0.9 g
same,KIDNEY_R,3 h,0.9 g
same,KIDNEY_TOTAL,3 h,1.8 g
same,LIVER,3 h,8.7 g
same,A/G,3 h,0.9
same,ALP,3 h,1644.6 IU/L
same,ALT,3 h,45.4 IU/L
same,AST,3 h,80.2 IU/L
same,BUN,3 h,9.6 mg/dL
same,CRE,3 h,0.2 mg/dL
same,Ca,3 h,10.9 mg/dL
same,Cl,3 h,105.6 meq/L
same,DBIL,3 h,0.01 mg/dL
same,GLC,3 h,182.8 mg/dL
same,IP,3 h,9.8 mg/dL
same,K,3 h,4.4 meq/L
same,LDH,3 h,59.4 IU/L
same,Na,3 h,142 meq/L
same,PL,3 h,136.4 mg/dL
same,RALB,3 h,2.6 g/dL
same,TBIL,3 h,0.038 mg/dL
same,TC,3 h,86.2 mg/dL
same,TG,3 h,31.8 mg/dL
same,TP,3 h,5.5 g/dL
same,gamma-GTP,3 h,1.6 IU/L
same,TERMINAL_BW,6 h,202.9 g
same,APTT,6 h,17.1 s
same,Bas,6 h,0%
same,Eos,6 h,0.8%
same,Fbg,6 h,299 mg/dL
same,Hb,6 h,13.1 g/dL
same,Ht,6 h,38.7%
same,Lym,6 h,75.6%
same,MCH,6 h,21.5 pg
same,MCHC,6 h,34%
same,MCV,6 h,63.4 fL
same,Mono,6 h,3.6%
same,Neu,6 h,19.4%
same,PT,6 h,13.2 s
same,Plat,6 h,112.5 x10_4/uL
same,RBC,6 h,612 x10_4/ul
same,Ret,6 h,8.2%
same,WBC,6 h,68.1 x10_2/uL
same,KIDNEY_L,6 h,0.9 g
same,KIDNEY_R,6 h,0.9 g
same,KIDNEY_TOTAL,6 h,1.7 g
same,LIVER,6 h,8.5 g
same,A/G,6 h,0.9
same,ALP,6 h,1516.2 IU/L
same,ALT,6 h,41.8 IU/L
same,AST,6 h,72.4 IU/L
same,BUN,6 h,9 mg/dL
same,CRE,6 h,0.2 mg/dL
same,Ca,6 h,10.8 mg/dL
same,Cl,6 h,108 meq/L
same,DBIL,6 h,0.012 mg/dL
same,GLC,6 h,185.4 mg/dL
same,IP,6 h,10.1 mg/dL
same,K,6 h,4.1 meq/L
same,LDH,6 h,65.6 IU/L
same,Na,6 h,142.2 meq/L
same,PL,6 h,133.4 mg/dL
same,RALB,6 h,2.6 g/dL
same,TBIL,6 h,0.046 mg/dL
same,TC,6 h,79.8 mg/dL
same,TG,6 h,40.6 mg/dL
same,TP,6 h,5.5 g/dL
same,gamma-GTP,6 h,1.4 IU/L
same,TERMINAL_BW,9 h,203.4 g
same,APTT,9 h,16.8 s
same,Bas,9 h,0%
same,Eos,9 h,1%
same,Fbg,9 h,285.6 mg/dL
same,Hb,9 h,13.2 g/dL
same,Ht,9 h,38.5%
same,Lym,9 h,74.4%
same,MCH,9 h,21.3 pg
same,MCHC,9 h,34.2%
same,MCV,9 h,62.4 fL
same,Mono,9 h,3%
same,Neu,9 h,21.2%
same,PT,9 h,12.8 s
same,Plat,9 h,108.1 x10_4/uL
same,RBC,9 h,616.6 x10_4/ul
same,Ret,9 h,8.5%
same,WBC,9 h,59.4 x10_2/uL
same,KIDNEY_L,9 h,0.9 g
same,KIDNEY_R,9 h,0.9 g
same,KIDNEY_TOTAL,9 h,1.8 g
same,LIVER,9 h,7.9 g
same,A/G,9 h,0.9
same,ALP,9 h,1387.4 IU/L
same,ALT,9 h,42.2 IU/L
same,AST,9 h,76.2 IU/L
same,BUN,9 h,7.4 mg/dL
same,CRE,9 h,0.2 mg/dL
same,Ca,9 h,10.4 mg/dL
same,Cl,9 h,105.2 meq/L
same,DBIL,9 h,0.01 mg/dL
same,GLC,9 h,171.4 mg/dL
same,IP,9 h,10.6 mg/dL
same,K,9 h,4.1 meq/L
same,LDH,9 h,60.6 IU/L
same,Na,9 h,141 meq/L
same,PL,9 h,137.4 mg/dL
same,RALB,9 h,2.5 g/dL
same,TBIL,9 h,0.044 mg/dL
same,TC,9 h,90.2 mg/dL
same,TG,9 h,23 mg/dL
same,TP,9 h,5.4 g/dL
same,gamma-GTP,9 h,1.4 IU/L
same,TERMINAL_BW,24 h,210.8 g
same,APTT,24 h,17.4 s
same,Bas,24 h,0%
same,Eos,24 h,1%
same,Fbg,24 h,275 mg/dL
same,Hb,24 h,13.2 g/dL
same,Ht,24 h,38.6%
same,Lym,24 h,76%
same,MCH,24 h,21.7 pg
same,MCHC,24 h,34.2%
same,MCV,24 h,63.6 fL
same,Mono,24 h,2.8%
same,Neu,24 h,19.6%
same,PT,24 h,12.9 s
same,Plat,24 h,111.5 x10_4/uL
same,RBC,24 h,607.4 x10_4/ul
same,Ret,24 h,8.1%
same,WBC,24 h,74.8 x10_2/uL
same,KIDNEY_L,24 h,0.9 g
same,KIDNEY_R,24 h,0.9 g
same,KIDNEY_TOTAL,24 h,1.9 g
same,LIVER,24 h,9.8 g
same,A/G,24 h,0.9
same,ALP,24 h,1818.4 IU/L
same,ALT,24 h,48.4 IU/L
same,AST,24 h,74.2 IU/L
same,BUN,24 h,14.8 mg/dL
same,CRE,24 h,0.2 mg/dL
same,Ca,24 h,11.1 mg/dL
same,Cl,24 h,106.2 meq/L
same,DBIL,24 h,0.02 mg/dL
same,GLC,24 h,194.2 mg/dL
same,IP,24 h,8.1 mg/dL
same,K,24 h,4.3 meq/L
same,LDH,24 h,63.4 IU/L
same,Na,24 h,140.8 meq/L
same,PL,24 h,149.8 mg/dL
same,RALB,24 h,2.7 g/dL
same,TBIL,24 h,0.036 mg/dL
same,TC,24 h,80.8 mg/dL
same,TG,24 h,114.6 mg/dL
same,TP,24 h,5.7 g/dL
same,gamma-GTP,24 h,1.4 IU/L
